Read-outs that look alike come from different tables or passages of the source.
How the values were obtained:
[1] = tested on: Mycoplasma gallisepticum (MG) S6; assay: In vitro sensitivity test (liquid dilution method); type: cell-based; details: 37°C, 7 days
Description: (§1) Survey of the sensitivity of the compound (I) to various strains of microorganisms was performed by a liquid dilution method […] an agar dilution method, in which the bacteria used were of animal origin and included the following strains (15 strains out of 11 bacteria): Chicken-origin strain: Mycoplasma gallisepticum (MG), Mycoplasma synoviae (MS), Hemophilus paragallinarum (H.pg) and Escherichia coli (E.coli); Pig-origin strain: Mycoplasma hyopneumoniae (Mh), Hemophilus pleuropneumonia (H.pp) and Bordetella bronchiseptica (B.br); Fish-origin strain: Pasteurella piscicida (P.pis) and Streptococcus sp (Str.sp); others: Escherichia coli (E. coli), Salmonella typhimurium (S.typhi) and Staphylococcus aureus (S.au).
(§2) Of these bacteria, the strains belonging to MG, MS and Mh were cultured at 37°C for 7 days by a liquid dilution method, of which the culture medium comprised: 12 % horse-serum added "PPLO" (agar manufactured by Difco) medium for MG; 12 % pig-serum, 0.01 % βNAD (nicotinamide adenine dinucleotide) added Frey medium for MS; 0.5 % lactoalbumin added Hank's solution, 10 % horse-serum, 0.5 % yeast extract (25 %) for Mh, and the agar dilution method was applied to the strains belonging to H.pg, H.pp, S.typhi, E.coli, S.au and B.br. Specifically, the H.pg strain was cultured in a 5 % chicken-serum added chicken bouillon medium and the H.pp strain was cultured in a heart infusion agar added with 10 % sheep defibered blood and 0.05 % βNAD. In case of the H.pg and P.pp strains, observation was made after cultivation at 37°C for 20 hours under 10 % CO₂. Mueller Hinton agar (Difco) was used for the strains belonging to S.typhi, E.coli, S.au and B.br, and observation was made after cultivation at 37°C for 20 to 24 hours. P.pis and Str.sp, both being of fish-origin, were respectively cultured at 25°C for 40 to 48 hours in a 1.5 % NaCl added heart infusion agar and in a sensitive disk medium.

[2] = tested on: Mycoplasma gallisepticum (MG) T-7-T, TS-resistant strain isolated from the field; assay: In vitro sensitivity test (liquid dilution method); type: cell-based; details: 37°C, 7 days
Description: as §1, §2

[3] = tested on: Mycoplasma hyopneumoniae (Mh) ST-11; assay: In vitro sensitivity test (liquid dilution method); type: cell-based; details: 37°C, 7 days
Description: as §1, §2

[4] = tested on: Bordetella bronchiseptica (B.br) ABU-1; assay: In vitro sensitivity test (agar dilution method); type: cell-based; details: 37°C, 20 to 24 hours
Description: as §1, §2

[5] = tested on: Escherichia coli (E.coli) E-17, chicken-origin strain isolated from the field; assay: In vitro sensitivity test (agar dilution method); type: cell-based; details: 37°C, 20 to 24 hours
Description: as §1, §2

[6] = tested on: Escherichia coli (E.coli) JC-2; assay: In vitro sensitivity test (agar dilution method); type: cell-based; details: 37°C, 20 to 24 hours
Description: as §1, §2

[7] = tested on: Hemophilus paragallinarum (H.pg) 221; assay: In vitro sensitivity test (agar dilution method); type: cell-based
Description: as §1, §2

[8] = tested on: Hemophilus paragallinarum (H.pg) S-1; assay: In vitro sensitivity test (agar dilution method); type: cell-based
Description: as §1, §2

[9] = tested on: Hemophilus pleuropneumonia (H.pp) M-1; assay: In vitro sensitivity test (agar dilution method); type: cell-based; details: 37°C, 20 hours, 10 % CO₂
Description: as §1, §2

[10] = tested on: Salmonella typhimurium (S.typhi) 13311; assay: In vitro sensitivity test (agar dilution method); type: cell-based; details: 37°C, 20 to 24 hours
Description: as §1, §2

[11] = tested on: Staphylococcus aureus (S.au) 209P; assay: In vitro sensitivity test (agar dilution method); type: cell-based; details: 37°C, 20 to 24 hours
Description: as §1, §2

[12] = tested on: Pasteurella piscicida (P.pis) No. 2; assay: In vitro sensitivity test; type: cell-based; details: 25°C, 40 to 48 hours
Description: as §1, §2

[13] = tested on: Streptococcus sp (Str.sp) SNO6119; assay: In vitro sensitivity test; type: cell-based; details: 25°C, 40 to 48 hours
Description: as §1, §2

[14] = tested on: TS-resistant strain of MG; type: in vivo, chicken; details: for Infectious index Left air sack + / Infectious index Left air sack ++ / Infectious index Left air sack +++ / Infectious index Left air sack - / Infectious index Right air sack + / Infectious index Right air sack ++ / Infectious index Right air sack +++ / Infectious index Right air sack -: count of fowl; for Infectious index Left air sack + / Infectious index Left air sack ++ / Infectious index Left air sack +++ / Infectious index Left air sack - / Infectious index Right air sack + / Infectious index Right air sack ++ / Infectious index Right air sack +++ / Infectious index Right air sack - / Number of fowl having air sack lesions: 10-days chicken, 3.0 x 10³ CFU/fowl; for Number of infected fowl/Number of fowl tested: 9-days chicken, 3.5 x 10³ CFU/fowl
[15] = tested on: TS-resistant MG; assay: Experimental MG infection to chicken, through bait; type: in vivo; details: 9-days chicken, 6.6 x 10³ CFU/fowl, dissection 6th day after inoculation
[16] = tested on: H.pp (otherwise called Actinobacillus pleuropneumoniae) strain M-1; assay: Experimental H.pp infection to pig, through injection; type: in vivo; details: injection to thigh muscle one time, Dose 5 mg/kg; dissection 6 days after inoculation
Description: In these experiments, the compound (I) was applied to the designated animals by (1) oral administration, (2) incorporation into baits and (3) intramuscular injection, the details of which are explained below.
(3) Preparation of the MG infected fowls was performed in the same manner as in (1) above. Infection of H.pp (otherwise called Actinobacillus pleuropneumoniae) to cause pleuropneumonia in pig was performed by inoculating 5 ml of a fresh cultured strain (i.e. M-1) of H.pp to each nasopharyngeal of some 45 days pigs, each weighing 4 to 9 kg (4 to 5 pigs/group), followed by injection of the test compounds to each thigh muscle at a designated volume one time. Pigs were dissected 6 days after the inoculation. The evaluation of the antimicrobial activity was made by observation of the pneumonia symptomes in air sacs, number of dead body and degree of nodosity in air sacks on dissection.

[17] = agar dilution, 37°C, 20 hours, 10 % CO₂

Structure (SMILES) | In vitro Sensitivity Test MG S6 [1] [µg/mL] | In vitro Sensitivity Test MG T-7-T [2] [µg/mL] | In vitro Sensitivity Test Mh ST-11 [3] [µg/mL] | In vitro Sensitivity Test B.br ABU-1 [4] [µg/mL] | In vitro Sensitivity Test E.coli E-17 [5] [µg/ml] | In vitro Sensitivity Test E.coli JC-2 [6] [µg/mL] | In vitro Sensitivity Test H.pp M-1 [9] [µg/mL] | In vitro Sensitivity Test S.typhi 13311 [10] [µg/mL] | In vitro Sensitivity Test S.au 209P [11] [µg/mL] | In vitro Sensitivity Test P.pis No. 2 [12] [µg/mL] | In vitro Sensitivity Test Str.sp SNO6119 [13] [µg/mL] | Infectious index Left air sack + ([14]; oral 3.13 mg/kg) | Infectious index Left air sack ++ ([14]; oral 3.13 mg/kg) | Infectious index Left air sack +++ ([14]; oral 3.13 mg/kg) | Infectious index Left air sack - ([14]; oral 3.13 mg/kg) | Infectious index Right air sack + ([14]; oral 3.13 mg/kg) | Infectious index Right air sack ++ ([14]; oral 3.13 mg/kg) | Infectious index Right air sack +++ ([14]; oral 3.13 mg/kg) | Infectious index Right air sack - ([14]; oral 3.13 mg/kg) | Infectious index Left air sack + ([14]; oral 6.25 mg/kg) | also measured
CN[C@@H]1CCC[C@H]2[C@@H]1CCN2c1c(F)cc2c(=O)c(C(=O)O)cn(C3CC3)c2c1F (relative stereo) [I-3] | 0.025 | 0.05 | 0.05 | 6.25 | 0.1 | 0.1 | 0.2 | 0.1 | 0.2 | 1.56 | 0.78 | 0 | 1 | 0 | 4 | 0 | 3 | 0 | 2 | 0 | In vitro Sensitivity Test H.pg 221 [7]: 1.56 µg/mL; In vitro Sensitivity Test H.pg S-1 [8]: 1.56 µg/mL; Infectious index Left air sack ++ ([14]; oral 6.25 mg/kg): 0; Infectious index Left air sack +++ ([14]; oral 6.25 mg/kg): 0; Infectious index Left air sack - ([14]; oral 6.25 mg/kg): 5; Infectious index Right air sack + ([14]; oral 6.25 mg/kg): 2; Infectious index Right air sack ++ ([14]; oral 6.25 mg/kg): 3; Infectious index Right air sack +++ ([14]; oral 6.25 mg/kg): 0; Infectious index Right air sack - ([14]; oral 6.25 mg/kg): 0; Infectious index Left air sack + ([14]; oral 12.5 mg/kg): 1; Infectious index Left air sack ++ ([14]; oral 12.5 mg/kg): 0; Infectious index Left air sack +++ ([14]; oral 12.5 mg/kg): 0; Infectious index Left air sack - ([14]; oral 12.5 mg/kg): 4; Infectious index Right air sack + ([14]; oral 12.5 mg/kg): 2; Infectious index Right air sack ++ ([14]; oral 12.5 mg/kg): 1; Infectious index Right air sack +++ ([14]; oral 12.5 mg/kg): 0; Infectious index Right air sack - ([14]; oral 12.5 mg/kg): 2; Number of fowl having air sack lesions ([14]; oral 3.13 mg/kg): 3; Number of fowl having air sack lesions ([14]; oral 6.25 mg/kg): 5; Number of fowl having air sack lesions ([14]; oral 12.5 mg/kg): 3
CN[C@H]1CCC[C@H]2CN(c3c(F)cc4c(=O)c(C(=O)O)cn(C5CC5)c4c3F)CC[C@H]21.Cl (relative stereo) [I-7, 1-cyclopropyl-6,8-difluoro-7-[(1R*,6R*,7S*)-7-methylamino-3-azabicyclo[4.4.0]decan-3-yl]-1,4-dihydro-4-oxo-3-quinolinecarboxylic acid hydrochloride] | 0.05 | 0.2 | 0.1 | 6.25 | 0.39 | 0.39 | 0.78 | 0.2 | 0.78 | 6.25 | 3.13 | 0 | 0 | 0 | 5 | 0 | 3 | 1 | 1 | 1 | In vitro Sensitivity Test H.pg 221 [7, 17]: >3.13 µg/mL; In vitro Sensitivity Test H.pg S-1 [8, 17]: >3.13 µg/mL; Infectious index Left air sack ++ ([14]; oral 6.25 mg/kg): 0; Infectious index Left air sack +++ ([14]; oral 6.25 mg/kg): 0; Infectious index Left air sack - ([14]; oral 6.25 mg/kg): 5; Infectious index Right air sack + ([14]; oral 6.25 mg/kg): 1; Infectious index Right air sack ++ ([14]; oral 6.25 mg/kg): 3; Infectious index Right air sack +++ ([14]; oral 6.25 mg/kg): 1; Infectious index Right air sack - ([14]; oral 6.25 mg/kg): 0; Infectious index Left air sack + ([14]; oral 12.5 mg/kg): 0; Infectious index Left air sack ++ ([14]; oral 12.5 mg/kg): 0; Infectious index Left air sack +++ ([14]; oral 12.5 mg/kg): 0; Infectious index Left air sack - ([14]; oral 12.5 mg/kg): 5; Infectious index Right air sack + ([14]; oral 12.5 mg/kg): 2; Infectious index Right air sack ++ ([14]; oral 12.5 mg/kg): 1; Infectious index Right air sack +++ ([14]; oral 12.5 mg/kg): 2; Infectious index Right air sack - ([14]; oral 12.5 mg/kg): 0; Number of fowl having air sack lesions ([14]; oral 3.13 mg/kg): 4; Number of fowl having air sack lesions ([14]; oral 6.25 mg/kg): 5; Number of fowl having air sack lesions ([14]; oral 12.5 mg/kg): 5
CCNCC12CCCC1CN(c1c(F)cc3c(=O)c(C(=O)O)cn(CC)c3c1F)C2.Cl (centres unmarked) [I-23] | 0.0125 |  | 0.78 |  |  | 0.78 | 0.78 | 1.56 | 0.1 | 0.78 | 0.39 |  |  |  |  |  |  |  |  |  | Number of infected fowl/Number of fowl tested ([14]; oral 1.56 mg/kg): 5/5; Number of infected fowl/Number of fowl tested ([14]; oral 3.13 mg/kg): 5/5; Number of infected fowl/Number of fowl tested ([14]; oral 6.25 mg/kg): 0/5; Number of infected fowl/Number of fowl tested ([15]; bait 31.3 ppm/Day): 5/7; Number of infected fowl/Number of fowl tested ([15]; bait 62.5 ppm/Day): 0/7; Number of infected fowl/Number of fowl tested ([15]; bait 125 ppm/Day): 0/7; Number of pig having nodi/Number of pig tested [16]: 2/4
